Test results reported in US7041705B2, “Injectable aqueous dispersions of propofol” (Jagotec AG, priority 1998, dated 2006).
Where a name gives a salt, the structure may show the parent alone. Read-outs that look alike come from different tables or passages of the source.

System: human whole-blood (erythrocytes)
Details: both
Protocol: In-vitro evaluation of the hemolytic influence of the preparations of this invention on human whole-blood was determined as a further guide to selecting formulations with a low tendancy to produce irritation around the site of injection. The hemolytic potential of the formulation on blood was evaluated by the assay of erythrocyte cytoplasmic marker enzyme, lactate dehydrogenase (LDH). Measurement of erythrocyte cytoplasmic marker enzyme. LDH, which escapes from the leaky or ruptured erythrocytes into tie plasma compartment of the blood, is one of the commonly used quantitative assays described in literature for evaluation of hemolytic potential of injectable formulations (Stenz and Bauer, 1996). The blood was obtained from male or female Caucasian human volunteers of 18 to 65 years age and stabilized with sodium heparin. The test formulation was mixed with an equal volume of human whole blood and incubated at 37° C. for about 1 hour. The mixture was then held at ambient temperature for 30 min. followed by centrifugation at 1500 rpm for 10 min. The level of LDH in the supernatant was determined by a standard procedure known to the scientists skilled in this art.

LDH (1.8 mg/mL): 673 IU/L
LDH (50 mg/mL): 8190 IU/L
SMILES: CCCCc1oc2ccccc2c1C(=O)c1cc(I)c(OCCN(CC)CC)c(I)c1 [Amiodarone hydrochloride]
